Consider eight compounds from ChEMBL document CHEMBL2057188, “Hybridizing ability and nuclease resistance profile of backbone modified cationic phosphorothioate oligonucleotides” (Bioorg Med Chem, 2012).

What all share (assay type): nucleic-acid assay
Assay [1] deals with Nucleic Acid. In words: DNA hybridizing activity at 22 bp double stranded DNA assessed as thermal stability of duplexes formed between compound and complimentary dsDNA by measuring melting temperature at 1.5 uM in presence of 7 mM pH 5.5 sodium phosphate buffer containing 140 mM K, 10 mM MgCl2 by UV based melting experiment.
The subject of assay [2] is Nucleic Acid. In words: DNA hybridizing activity at single stranded DNA assessed as thermal stability of duplexes formed between compound and complimentary ssDNA by measuring melting temperature at 4 uM in presence of 10 mM pH 7.2 sodium phosphate buffer containing 100 mM NaCl by UV based melting experiment.
For assay [3], the system named is Nucleic Acid. In words: DNA hybridizing activity at 22 bp double stranded DNA assessed as thermal stability of duplexes formed between compound and complimentary dsDNA by measuring change in melting temperature at 1.5 uM in presence of 7 mM pH 5.5 sodium phosphate buffer containing 140 mM K, 10 mM MgCl2 by UV based melting experiment.
Assay [4] deals with Nucleic Acid. In words: DNA hybridizing activity at single stranded DNA assessed as thermal stability of duplexes formed between compound and complimentary ssDNA by measuring change in melting temperature at 4 uM in presence of 10 mM pH 7.2 sodium phosphate buffer containing 100 mM NaCl by UV based melting experiment relative to untreated control.
Assay [5] relates to Nucleic Acid. In words: DNA hybridizing activity at single stranded RNA assessed as thermal stability of duplexes formed between compound and complimentary ssRNA by measuring melting temperature at 4 uM in presence of 10 mM pH 7.2 sodium phosphate buffer containing 100 mM NaCl by UV based melting experiment.
Assay [6] deals with Nucleic Acid. Kind of assay: DNA hybridizing activity at single stranded RNA assessed as thermal stability of duplexes formed between compound and complimentary ssRNA by measuring change in melting temperature at 4 uM in presence of 10 mM pH 7.2 sodium phosphate buffer containing 100 mM NaCl by UV based melting experiment relative to untreated control.

For the compound `Cc1cn([C@H]2C[C@H](OP(=O)(O)OC[C@H]3O[C@@H](n4cc(C)c(=O)[nH]c4=O)C[C@@H]3OP(=O)(O)OC[C@H]3O[C@@H](n4cc(C)c(=O)[nH]c4=O)C[C@@H]3O[P@@](=O)(OC[C@H]3O[C@@H](n4cc(C)c(=O)[nH]c4=O)C[C@@H]3OP(=O)(O)OC[C@H]3O[C@@H](n4cc(C)c(=O)[nH]c4=O)C[C@@H]3OP(=O)(O)OC[C@H]3O[C@@H](n4cc(C)c(=O)[nH]c4=O)C[C@@H]3OP(=O)(O)OC[C@H]3O[C@@H](n4ccc(N)nc4=O)C[C@@H]3OP(=O)(O)OC[C@H]3O[C@@H](n4ccc(N)nc4=O)C[C@@H]3OP(=O)(O)OC[C@H]3O[C@@H](n4ccc(N)nc4=O)C[C@@H]3OP(=O)(O)O)SCCNCCCN)[C@@H](COP(=O)(O)O[C@H]3C[C@H](n4ccc(N)nc4=O)O[C@@H]3COP(=O)(O)O[C@H]3C[C@H](n4ccc(N)nc4=O)O[C@@H]3COP(=O)(O)O[C@H]3C[C@H](n4ccc(N)nc4=O)O[C@@H]3CO)O2)c(=O)[nH]c1=O`, the Tm – broadly, the temperature at the midpoint of the melting transition – with Nucleic Acid [1] is 31 °C; with Nucleic Acid [2], 45 °C; in the assay with Nucleic Acid [5] it was 46 °C. Further, the ΔTm (in general, the shift of the melting midpoint relative to a reference) in the assay with Nucleic Acid [3] came to 6 °C; in the assay with Nucleic Acid [4] it was 3 °C; with Nucleic Acid [6], 0 °C.

On to `Cc1cn([C@H]2C[C@H](OP(=O)(O)OC[C@H]3O[C@@H](n4cc(C)c(=O)[nH]c4=O)C[C@@H]3OP(=O)(O)OC[C@H]3O[C@@H](n4cc(C)c(=O)[nH]c4=O)C[C@@H]3O[P@@](=O)(OC[C@H]3O[C@@H](n4cc(C)c(=O)[nH]c4=O)C[C@@H]3OP(=O)(O)OC[C@H]3O[C@@H](n4cc(C)c(=O)[nH]c4=O)C[C@@H]3OP(=O)(O)OC[C@H]3O[C@@H](n4cc(C)c(=O)[nH]c4=O)C[C@@H]3OP(=O)(O)OC[C@H]3O[C@@H](n4ccc(N)nc4=O)C[C@@H]3OP(=O)(O)OC[C@H]3O[C@@H](n4ccc(N)nc4=O)C[C@@H]3OP(=O)(O)OC[C@H]3O[C@@H](n4ccc(N)nc4=O)C[C@@H]3OP(=O)(O)O)SCCN3CCNCC3)[C@@H](COP(=O)(O)O[C@H]3C[C@H](n4ccc(N)nc4=O)O[C@@H]3COP(=O)(O)O[C@H]3C[C@H](n4ccc(N)nc4=O)O[C@@H]3COP(=O)(O)O[C@H]3C[C@H](n4ccc(N)nc4=O)O[C@@H]3CO)O2)c(=O)[nH]c1=O`, for which the midpoint of thermal melting (Tm) with Nucleic Acid [1] came to 28 °C; in the assay on Nucleic Acid [2] it was 45 °C; in the assay with Nucleic Acid [5] it was 46 °C. For the same compound, the shift in melting temperature (ΔTm) with Nucleic Acid [3] stood at 3 °C; with Nucleic Acid [4], 3 °C; in the assay with Nucleic Acid [6], 0 °C.

On to `Cc1cn([C@H]2C[C@H](OP(=O)(O)OC[C@H]3O[C@@H](n4cc(C)c(=O)[nH]c4=O)C[C@@H]3OP(=O)(O)OC[C@H]3O[C@@H](n4cc(C)c(=O)[nH]c4=O)C[C@@H]3O[P@@](=O)(OC[C@H]3O[C@@H](n4cc(C)c(=O)[nH]c4=O)C[C@@H]3OP(=O)(O)OC[C@H]3O[C@@H](n4cc(C)c(=O)[nH]c4=O)C[C@@H]3OP(=O)(O)OC[C@H]3O[C@@H](n4cc(C)c(=O)[nH]c4=O)C[C@@H]3OP(=O)(O)OC[C@H]3O[C@@H](n4ccc(N)nc4=O)C[C@@H]3OP(=O)(O)OC[C@H]3O[C@@H](n4ccc(N)nc4=O)C[C@@H]3OP(=O)(O)OC[C@H]3O[C@@H](n4ccc(N)nc4=O)C[C@@H]3OP(=O)(O)O)SCCCCN)[C@@H](COP(=O)(O)O[C@H]3C[C@H](n4ccc(N)nc4=O)O[C@@H]3COP(=O)(O)O[C@H]3C[C@H](n4ccc(N)nc4=O)O[C@@H]3COP(=O)(O)O[C@H]3C[C@H](n4ccc(N)nc4=O)O[C@@H]3CO)O2)c(=O)[nH]c1=O`, for which the Tm turned out to be 27 °C with Nucleic Acid [1], 44 °C in the assay with Nucleic Acid [2] and 45 °C with Nucleic Acid [5]. Besides, the ΔTm is 2 °C in the assay with Nucleic Acid [3], 2 °C with Nucleic Acid [4] and -1 °C with Nucleic Acid [6].

On to `Cc1cn([C@H]2C[C@H](OP(=O)(O)OC[C@H]3O[C@@H](n4cc(C)c(=O)[nH]c4=O)C[C@@H]3OP(=O)(O)OC[C@H]3O[C@@H](n4cc(C)c(=O)[nH]c4=O)C[C@@H]3O[P@@](=O)(OC[C@H]3O[C@@H](n4cc(C)c(=O)[nH]c4=O)C[C@@H]3OP(=O)(O)OC[C@H]3O[C@@H](n4cc(C)c(=O)[nH]c4=O)C[C@@H]3OP(=O)(O)OC[C@H]3O[C@@H](n4cc(C)c(=O)[nH]c4=O)C[C@@H]3OP(=O)(O)OC[C@H]3O[C@@H](n4ccc(N)nc4=O)C[C@@H]3OP(=O)(O)OC[C@H]3O[C@@H](n4ccc(N)nc4=O)C[C@@H]3OP(=O)(O)OC[C@H]3O[C@@H](n4ccc(N)nc4=O)C[C@@H]3OP(=O)(O)O)SCCCN3CCNCC3)[C@@H](COP(=O)(O)O[C@H]3C[C@H](n4ccc(N)nc4=O)O[C@@H]3COP(=O)(O)O[C@H]3C[C@H](n4ccc(N)nc4=O)O[C@@H]3COP(=O)(O)O[C@H]3C[C@H](n4ccc(N)nc4=O)O[C@@H]3CO)O2)c(=O)[nH]c1=O`, for which the Tm was determined as 27 °C in the assay with Nucleic Acid [1], 45 °C in the assay on Nucleic Acid [2] and 45 °C in the assay on Nucleic Acid [5]. Besides, the ΔTm in the assay on Nucleic Acid [3] was 2 °C; with Nucleic Acid [4], 3 °C; with Nucleic Acid [6] it was -1 °C.

`Cc1cn([C@H]2C[C@H](OP(=O)(O)OC[C@H]3O[C@@H](n4cc(C)c(=O)[nH]c4=O)C[C@@H]3OP(=O)(O)OC[C@H]3O[C@@H](n4cc(C)c(=O)[nH]c4=O)C[C@@H]3O[P@](=O)(OC[C@H]3O[C@@H](n4cc(C)c(=O)[nH]c4=O)C[C@@H]3OP(=O)(O)OC[C@H]3O[C@@H](n4cc(C)c(=O)[nH]c4=O)C[C@@H]3OP(=O)(O)OC[C@H]3O[C@@H](n4cc(C)c(=O)[nH]c4=O)C[C@@H]3OP(=O)(O)OC[C@H]3O[C@@H](n4ccc(N)nc4=O)C[C@@H]3OP(=O)(O)OC[C@H]3O[C@@H](n4ccc(N)nc4=O)C[C@@H]3OP(=O)(O)OC[C@H]3O[C@@H](n4ccc(N)nc4=O)C[C@@H]3OP(=O)(O)O)SCCCCN)[C@@H](COP(=O)(O)O[C@H]3C[C@H](n4ccc(N)nc4=O)O[C@@H]3COP(=O)(O)O[C@H]3C[C@H](n4ccc(N)nc4=O)O[C@@H]3COP(=O)(O)O[C@H]3C[C@H](n4ccc(N)nc4=O)O[C@@H]3CO)O2)c(=O)[nH]c1=O`: the Tm is 24 °C in the assay with Nucleic Acid [1], 40 °C with Nucleic Acid [2] and 43 °C in the assay on Nucleic Acid [5]. For the same compound, the ΔTm is -2 °C with Nucleic Acid [3], -2 °C in the assay on Nucleic Acid [4] and -3 °C in the assay with Nucleic Acid [6].

With `Cc1cn([C@H]2C[C@H](OP(=O)(O)OC[C@H]3O[C@@H](n4cc(C)c(=O)[nH]c4=O)C[C@@H]3OP(=O)(O)OC[C@H]3O[C@@H](n4cc(C)c(=O)[nH]c4=O)C[C@@H]3O[P@](=O)(OC[C@H]3O[C@@H](n4cc(C)c(=O)[nH]c4=O)C[C@@H]3OP(=O)(O)OC[C@H]3O[C@@H](n4cc(C)c(=O)[nH]c4=O)C[C@@H]3OP(=O)(O)OC[C@H]3O[C@@H](n4cc(C)c(=O)[nH]c4=O)C[C@@H]3OP(=O)(O)OC[C@H]3O[C@@H](n4ccc(N)nc4=O)C[C@@H]3OP(=O)(O)OC[C@H]3O[C@@H](n4ccc(N)nc4=O)C[C@@H]3OP(=O)(O)OC[C@H]3O[C@@H](n4ccc(N)nc4=O)C[C@@H]3OP(=O)(O)O)SCCN3CCNCC3)[C@@H](COP(=O)(O)O[C@H]3C[C@H](n4ccc(N)nc4=O)O[C@@H]3COP(=O)(O)O[C@H]3C[C@H](n4ccc(N)nc4=O)O[C@@H]3COP(=O)(O)O[C@H]3C[C@H](n4ccc(N)nc4=O)O[C@@H]3CO)O2)c(=O)[nH]c1=O`, the Tm turned out to be 24 °C in the assay on Nucleic Acid [1], 40 °C in the assay on Nucleic Acid [2] and 44 °C in the assay with Nucleic Acid [5]. Also, the ΔTm in the assay with Nucleic Acid [3], with Nucleic Acid [4] and in the assay with Nucleic Acid [6] was -2 °C each time.

In the case of `Cc1cn([C@H]2C[C@H](OP(=O)(O)OC[C@H]3O[C@@H](n4cc(C)c(=O)[nH]c4=O)C[C@@H]3OP(=O)(O)OC[C@H]3O[C@@H](n4cc(C)c(=O)[nH]c4=O)C[C@@H]3O[P@@](=O)(OC[C@H]3O[C@@H](n4cc(C)c(=O)[nH]c4=O)C[C@@H]3OP(=O)(O)OC[C@H]3O[C@@H](n4cc(C)c(=O)[nH]c4=O)C[C@@H]3OP(=O)(O)OC[C@H]3O[C@@H](n4cc(C)c(=O)[nH]c4=O)C[C@@H]3OP(=O)(O)OC[C@H]3O[C@@H](n4ccc(N)nc4=O)C[C@@H]3OP(=O)(O)OC[C@H]3O[C@@H](n4ccc(N)nc4=O)C[C@@H]3OP(=O)(O)OC[C@H]3O[C@@H](n4ccc(N)nc4=O)C[C@@H]3OP(=O)(O)O)SCCCCCN)[C@@H](COP(=O)(O)O[C@H]3C[C@H](n4ccc(N)nc4=O)O[C@@H]3COP(=O)(O)O[C@H]3C[C@H](n4ccc(N)nc4=O)O[C@@H]3COP(=O)(O)O[C@H]3C[C@H](n4ccc(N)nc4=O)O[C@@H]3CO)O2)c(=O)[nH]c1=O`, the Tm with Nucleic Acid [1] amounted to 27 °C; with Nucleic Acid [2], 44 °C; with Nucleic Acid [5], 44 °C. In addition, the ΔTm in the assay on Nucleic Acid [3] is 2 °C; with Nucleic Acid [4] it was 2 °C; with Nucleic Acid [6], -2 °C.

`Cc1cn([C@H]2C[C@H](OP(=O)(O)OC[C@H]3O[C@@H](n4cc(C)c(=O)[nH]c4=O)C[C@@H]3OP(=O)(O)OC[C@H]3O[C@@H](n4cc(C)c(=O)[nH]c4=O)C[C@@H]3O[P@@](=O)(OC[C@H]3O[C@@H](n4cc(C)c(=O)[nH]c4=O)C[C@@H]3OP(=O)(O)OC[C@H]3O[C@@H](n4cc(C)c(=O)[nH]c4=O)C[C@@H]3OP(=O)(O)OC[C@H]3O[C@@H](n4cc(C)c(=O)[nH]c4=O)C[C@@H]3OP(=O)(O)OC[C@H]3O[C@@H](n4ccc(N)nc4=O)C[C@@H]3OP(=O)(O)OC[C@H]3O[C@@H](n4ccc(N)nc4=O)C[C@@H]3OP(=O)(O)OC[C@H]3O[C@@H](n4ccc(N)nc4=O)C[C@@H]3OP(=O)(O)O)SCCNCCN)[C@@H](COP(=O)(O)O[C@H]3C[C@H](n4ccc(N)nc4=O)O[C@@H]3COP(=O)(O)O[C@H]3C[C@H](n4ccc(N)nc4=O)O[C@@H]3COP(=O)(O)O[C@H]3C[C@H](n4ccc(N)nc4=O)O[C@@H]3CO)O2)c(=O)[nH]c1=O`: the values for the Tm with Nucleic Acid [1], in the assay on Nucleic Acid [2] and in the assay with Nucleic Acid [5] were 30 °C, 45 °C and 45 °C, respectively. Besides, the ΔTm in the assay with Nucleic Acid [3] is 5 °C; in the assay on Nucleic Acid [4], 3 °C; with Nucleic Acid [6] it was -1 °C.
